The data set in a line: Water solubility assay. The class given is physicochemical. The note with it: for solubility thermodynamic at 24 h: thermodynamic from solid.
[1] abbreviates: 50 mM TEAA buffer, pH 7.9, aqueous buffer.

This note sets out measurements from publication PMC7898795 (Angewandte Chemie (International Ed. in English), 2020).

Values after ≈ are worked out from the molar mass of the structure shown.

What is called thermodynamic solubility is solubility found after equilibrating the solid with the medium. `C=C(NC(=O)C(=C)NC(=O)c1csc(C2=N[C@@H]3c4csc(n4)[C@H]4NC(=O)c5csc(n5)[C@H]([C@](C)(O)[C@@H](C)O)NC(=O)[C@H]5CSC(=N5)/C(=C/C)NC(=O)[C@H]([C@@H](C)O)NC(=O)c5csc(n5)[C@]3(CC2)NC(=O)[C@H](C)NC(=O)C(=C)NC(=O)[C@H](C)NC(=O)[C@H]([C@@H](C)CC)N[C@@H]2C=Cc3c([C@H](C)O)cc(nc3[C@H]2O)C(=O)O[C@@H]4C)n1)C(N)=O` [Thiostrepton, thiostrepton, reference compound]: the thermodynamic solubility at 24 h was 5 ± 0.2 µg/mL (≈ 3 µM) under setting [1] and 6.4 ± 0.1 µg/mL (≈ 3.84 µM) (ddH2O, water).

Consider `C=C1NC(=O)[C@H](C)NC(=O)[C@H]([C@@H](C)CC)N[C@@H]2C=Cc3c([C@H](C)O)cc(nc3[C@H]2O)C(=O)O[C@H](C)[C@@H]2NC(=O)c3csc(n3)[C@H]([C@](C)(O)[C@@H](C)O)NC(=O)[C@H]3CSC(=N3)/C(=C/C)NC(=O)[C@H]([C@@H](C)O)NC(=O)c3csc(n3)[C@]3(CCC(c4nc(C(=O)NC(CB(O)O)C(=O)NC(CB(O)O)C(N)=O)cs4)=N[C@@H]3c3csc2n3)NC(=O)[C@H](C)NC1=O` (stereo partly drawn) [compound 3], for which the solubility (thermodynamic) at 24 h runs as follows: under setting [1], 422 ± 8.5 µg/mL (≈ 240 µM); (ddH2O, water) 170 ± 2.6 µg/mL (≈ 96.6 µM). For the same molecule, under “ratio of solubility to that of thiostrepton in 50 mM TEAA pH 7.9”, the “times more water-soluble than thiostrepton, in 50 mM TEAA (pH 7.9)” value was found to be 84 ×. The “times more water-soluble than thiostrepton, in ddH2O” value (ratio of solubility to that of thiostrepton in ddH2O) stood at 27 ×.
